A word on the IC50: it is the concentration needed to halve the response being measured.

One test deals with T1, GRK6 (Homo sapiens, UniProt P43250).
T1 construct: The presence of the full length GRK6 cDNA within the genome of the recombinant baculovirus was confirmed; made in house; host or cells: Sf9 insect cells (baculovirus, pBacPAK1)
In words: GRK6 phosphorylation of rhodopsin. In kind it is biochemical. The settings on record: for IC50: purified GRK6, read-out: IC50 for inhibiting GRK6; for effect on GRK6 activity: in the presence of Mg2+; for fold less effective as inhibitor of GRK6 compared to GRK5: GRK6 versus GRK5.

The target of test [1] is T2, GRK5 (Homo sapiens, UniProt P34947).
T2 construct: The GRK5 ORF was initially excised by restriction digestion of the full length clone pGRK5 using NaeI and SmaI; made in house; host or cells: Sf9 insect cells (baculovirus, pBacPAK1)
T2 sequence (P34947 whole entry): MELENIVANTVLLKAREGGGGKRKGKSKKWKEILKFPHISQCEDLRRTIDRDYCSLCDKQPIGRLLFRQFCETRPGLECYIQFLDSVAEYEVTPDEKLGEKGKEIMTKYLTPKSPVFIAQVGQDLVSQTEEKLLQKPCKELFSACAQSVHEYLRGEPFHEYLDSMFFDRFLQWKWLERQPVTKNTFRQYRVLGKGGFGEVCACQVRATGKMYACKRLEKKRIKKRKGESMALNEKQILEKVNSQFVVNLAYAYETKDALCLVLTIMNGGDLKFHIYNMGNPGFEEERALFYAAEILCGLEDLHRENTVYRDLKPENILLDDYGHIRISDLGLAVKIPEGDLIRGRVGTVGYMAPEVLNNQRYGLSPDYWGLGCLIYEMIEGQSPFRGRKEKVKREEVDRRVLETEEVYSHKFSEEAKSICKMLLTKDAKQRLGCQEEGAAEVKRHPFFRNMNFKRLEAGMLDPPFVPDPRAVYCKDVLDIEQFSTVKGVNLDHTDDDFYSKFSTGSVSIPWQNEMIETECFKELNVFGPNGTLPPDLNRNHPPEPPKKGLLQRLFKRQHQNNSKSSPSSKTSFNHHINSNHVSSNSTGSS
Nature of the test: GRK5 phosphorylation of rhodopsin (receptor phosphorylation). The class given is biochemical. The note with it: purified GRK5; read-out: IC50 for inhibiting GRK5.

In test [2] the target is T2, GRK5. The test is described as above. The class given is biochemical. The note with it: for reversal of heparin inhibition of GRK5: in presence of heparin. The method, then:
Rod outer segments (ROS) were prepared in accordance with methods known to those skilled in the art. Rhodopsin kinase free membranes were prepared by suspending the ROS in 50 mM Tris-HCl, pH 8.0, 5 mM EDTA, 5M urea and sonicating. The urea treated ROS were washed several times by centrifugation and resuspended in 50 mM Tris-HCl, pH 7.5 at a protein concentration of ˜1 mg/ml. Phosphorylation reactions contained 5 μg of total protein from the Sf9 cell supernatants expressing either GRK5 or βARK, urea treated ROS (80 pmol rhodopsin), 20 mM Tris-HCl, pH 7.5, 2 mM EDTA, 6 mM MgCl2 and 0.1 mM [γ-^32P] ATP, in a total reaction volume of 30 μl. When the effect of G protein βγ subunits was assessed, the reactions also contained 0.25 mM dithiothreitol, 0.01% Lubrol and 62 mM NaCl with or without 100 nM βγ subunits. Reactions were incubated at 30° C. for 15 minutes and then stopped by the addition of 50 μl of SDS sample buffer. Samples were electrophoresed on a 10% homogeneous SDS polyacrylamide gel by the method of Laemmli which is well known to those skilled in the art. Gels were dried and autoradiographed at room temperature for 30-120 minutes. The rhodopsin bands in the gel were then cut and counted in a scintillation counter.

The target of a further test is T3, βARK (Bos taurus, UniProt P21146).
T3 sequence (P21146 1-689): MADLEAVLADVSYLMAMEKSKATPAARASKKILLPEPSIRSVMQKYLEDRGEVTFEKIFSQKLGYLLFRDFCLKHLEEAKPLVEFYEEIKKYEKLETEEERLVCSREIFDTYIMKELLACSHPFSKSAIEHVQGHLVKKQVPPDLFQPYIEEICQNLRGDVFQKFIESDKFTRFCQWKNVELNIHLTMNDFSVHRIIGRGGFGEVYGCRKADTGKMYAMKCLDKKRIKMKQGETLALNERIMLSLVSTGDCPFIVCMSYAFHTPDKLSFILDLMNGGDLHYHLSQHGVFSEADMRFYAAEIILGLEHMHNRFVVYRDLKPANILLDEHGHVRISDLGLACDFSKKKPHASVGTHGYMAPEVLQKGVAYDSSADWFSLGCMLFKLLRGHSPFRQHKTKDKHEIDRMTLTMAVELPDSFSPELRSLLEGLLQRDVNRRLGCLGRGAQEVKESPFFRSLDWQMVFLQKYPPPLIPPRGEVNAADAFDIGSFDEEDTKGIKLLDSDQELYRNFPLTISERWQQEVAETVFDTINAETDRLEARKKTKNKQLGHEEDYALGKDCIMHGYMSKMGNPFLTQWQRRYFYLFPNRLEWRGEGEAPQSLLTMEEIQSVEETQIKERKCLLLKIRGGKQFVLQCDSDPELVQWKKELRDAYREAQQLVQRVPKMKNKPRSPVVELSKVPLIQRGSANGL
The settings on record: cited from earlier work.

The target of a further test is casein kinase II (Homo sapiens, UniProt P67870+P68400). The note with it: cited from earlier work.
Chain of casein kinase II (P68400 whole entry): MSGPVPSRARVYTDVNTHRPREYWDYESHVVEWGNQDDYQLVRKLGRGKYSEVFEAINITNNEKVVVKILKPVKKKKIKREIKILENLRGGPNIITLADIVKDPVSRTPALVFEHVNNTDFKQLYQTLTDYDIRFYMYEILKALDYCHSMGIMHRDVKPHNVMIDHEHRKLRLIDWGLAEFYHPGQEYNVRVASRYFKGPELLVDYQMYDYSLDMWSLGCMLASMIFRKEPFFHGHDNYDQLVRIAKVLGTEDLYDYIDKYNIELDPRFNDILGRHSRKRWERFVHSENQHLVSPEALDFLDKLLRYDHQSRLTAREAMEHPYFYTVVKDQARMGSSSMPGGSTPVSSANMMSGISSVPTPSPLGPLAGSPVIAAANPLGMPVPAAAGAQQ
Chain of casein kinase II (P67870 whole entry): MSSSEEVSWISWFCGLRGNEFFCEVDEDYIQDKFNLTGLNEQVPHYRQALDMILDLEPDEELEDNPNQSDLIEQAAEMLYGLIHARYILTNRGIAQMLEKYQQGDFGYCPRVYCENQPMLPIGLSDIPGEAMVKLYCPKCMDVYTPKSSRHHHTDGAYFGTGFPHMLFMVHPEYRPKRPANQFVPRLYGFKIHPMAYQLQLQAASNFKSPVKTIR
Another test addresses T4, rhodopsin kinase (Bos taurus, UniProt P28327).
T4 sequence (P28327 1-561): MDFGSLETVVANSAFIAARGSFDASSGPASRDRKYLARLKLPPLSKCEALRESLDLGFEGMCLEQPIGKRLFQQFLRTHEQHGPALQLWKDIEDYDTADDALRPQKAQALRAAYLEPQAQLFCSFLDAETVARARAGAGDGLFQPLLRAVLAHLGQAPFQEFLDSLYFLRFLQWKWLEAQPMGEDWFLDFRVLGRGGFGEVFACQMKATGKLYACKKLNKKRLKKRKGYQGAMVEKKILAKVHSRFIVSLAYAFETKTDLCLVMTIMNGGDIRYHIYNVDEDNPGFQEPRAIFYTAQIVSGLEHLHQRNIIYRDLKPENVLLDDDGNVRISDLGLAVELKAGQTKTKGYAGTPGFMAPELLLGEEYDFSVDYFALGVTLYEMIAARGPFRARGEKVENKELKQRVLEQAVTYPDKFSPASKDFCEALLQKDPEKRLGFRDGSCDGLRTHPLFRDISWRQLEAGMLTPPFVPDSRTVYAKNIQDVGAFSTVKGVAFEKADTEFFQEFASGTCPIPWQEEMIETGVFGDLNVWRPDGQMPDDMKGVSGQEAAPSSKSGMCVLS
The note with it: cited from earlier work.

For test [3], the target named is T2, GRK5. Nature of the test: GRK5 autophosphorylation. In kind it is biochemical.

Where “and” joins values, the source holds several entries; their conditions need not be identical. Equal entries are not always repeated.

T1 sequence (P43250 whole entry): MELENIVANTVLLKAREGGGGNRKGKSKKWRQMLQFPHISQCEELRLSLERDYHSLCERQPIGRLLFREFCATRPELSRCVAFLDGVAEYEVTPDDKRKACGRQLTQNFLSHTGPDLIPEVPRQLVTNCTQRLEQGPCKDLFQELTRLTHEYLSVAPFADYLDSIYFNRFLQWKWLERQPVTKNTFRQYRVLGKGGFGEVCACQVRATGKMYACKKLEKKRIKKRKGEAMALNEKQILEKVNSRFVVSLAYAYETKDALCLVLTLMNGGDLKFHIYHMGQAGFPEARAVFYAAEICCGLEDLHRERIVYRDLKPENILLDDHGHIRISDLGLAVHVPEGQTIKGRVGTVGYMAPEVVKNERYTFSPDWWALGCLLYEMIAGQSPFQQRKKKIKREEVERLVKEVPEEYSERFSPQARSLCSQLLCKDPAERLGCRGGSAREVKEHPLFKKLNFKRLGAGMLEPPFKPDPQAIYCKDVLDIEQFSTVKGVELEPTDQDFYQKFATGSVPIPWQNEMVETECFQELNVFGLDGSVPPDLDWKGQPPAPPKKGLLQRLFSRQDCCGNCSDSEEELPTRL

Turning to dextran sulfate, the half-inhibitory concentration (IC50) at GRK6 is 0.007 µM; on GRK5 [1], about 0.0006 µM.
With `NCCCCNCCCN` [spermidine], the “reversal of heparin inhibition of GRK5” value at GRK5 [2] is given as “effectively reversed”. On GRK5 [2] (optimal concentrations), the “activation of GRK5” value is given as about 1.5 fold. Also, the “enhancement of GRK6 activity” value at GRK6 (optimal concentration range 0.1 to 0.5 mM) is about 1.4 fold. Besides, the “inhibition of βARK” value on βARK is “weak inhibitors”. Also, the “effect on casein kinase” value at casein kinase II is “activators”. Further, the “effect on rhodopsin kinase” value at rhodopsin kinase is listed as “activators”.
As for polylysine, on GRK5 [2], the “reversal of heparin inhibition of GRK5” value is recorded as “effectively reversed”. The “activation of GRK5” value at GRK5 [2] (optimal concentration of 10 μM) is recorded as about 2.6 fold. Moreover, the “increase in GRK6 phosphorylation” value at GRK6 (optimal range 1 to 10 μM) was about 2.7 fold. Further, at βARK, the “inhibition of βARK” value is “weak inhibitors”. The “effect on casein kinase” value at casein kinase II is on record as “activators”. For the same compound, the “effect on rhodopsin kinase” value at rhodopsin kinase is “activators”.
For `[Zn+2]` [Zn^2+], the “effect on GRK6 activity” value at GRK6 was “inhibited”.
For the compound polyaspartic acid, on GRK6, the “fold less effective as inhibitor of GRK6 compared to GRK5” value was about 6 fold and the IC50 was found to be 0.487 µM.
For the compound `NCCCNCCCCNCCCN` [spermine], the “reversal of heparin inhibition of GRK5” value at GRK5 [2] is reported as “effectively reversed”. In addition, the “activation of GRK5” value at GRK5 [2] (optimal concentrations) was about 1.8 fold. Further, on GRK6 (optimal concentration range 0.01 to 0.1 mM), the “elevation of GRK6 phosphorylation of rhodopsin” value is listed as about 1.5 fold. In addition, on βARK, the “inhibition of βARK” value was “weak inhibitors”. Also, the “effect on casein kinase” value at casein kinase II is “activators”. In addition, the “effect on rhodopsin kinase” value at rhodopsin kinase is “activators”.
With polyglutamic acid, at GRK6, the “fold less effective as inhibitor of GRK6 compared to GRK5” value is recorded as about 16 fold and the IC50 stood at 0.4 µM.
On to heparin, for which the half-inhibitory concentration (IC50) at GRK6 is about 0.015 µM; on GRK5 [1], about 0.001 µM; at rhodopsin kinase, about 200 µM. Besides, the “inhibition of GRK5 autophosphorylation” value on GRK5 [3] (concentration of 10 μM) is recorded as “does not inhibit”.
For the compound `CC1CNCCN1S(=O)(=O)c1cccc2cnccc12` (stereo not drawn) [H-7], the IC50 at GRK5 [1] was about 170 µM.
As for `Cl` [NaCl], the 50% inhibitory concentration (IC50) at GRK5 [2] (IC50 for inhibiting GRK5 (receptor phosphorylation), purified GRK5) was ~60000 µM and 58000 µM; at GRK5 [3], about 70000 µM.
`[Ca+2]` [Ca^2+]: the “effect on GRK6 activity” value at GRK6 is “inhibited”.

The values are drawn from patent publication US20020034767A1, “Compositions and methods for modulating the activity of G protein-coupled receptor kinases GRK5 and GRK6” (priority 1993, published 2002).
